Where two headings read alike, the source gives them in different places.
Key:
CAL33 = test: XTT cell viability assay, CAL33; assay type: cell-based; settings: Homo sapiens, CAL-33; XTT assay (48 h); standard deviation of 10%; read-out: EC50 (μM) Head and Neck CAL33
Description: (§1) Fifty microliters of sodium 3′-[1-phenylaminocarbonyl)-3,4-tetrazolium]-bis(4-methoxy-6-nitro) benzene sulfonic acid hydrate (XTT) reagent was added to each well. The assay is based on the cleavage of the yellow tetrazolium salt XTT to form an orange formazan dye by metabolically active cells. The absorbance of the formazan product, reflecting cell viability, was measured at 490 nm. Each assay was performed in quadruplicate.
(§2) Compounds #1-#14 have been assayed as potential anti-proliferative agents against a panel of human breast head and neck, and kidney tumor cells and hematological malignancies, selected on the basis of their aggressiveness (e.g. incurable triple-negative breast cancer cells: MDA-MB-231; kidney ccRCC cells: RCC4, A498 and 786-O and 786R; head and neck cancer cells: CAL33, CAL33RR, CAL27, and CAL27RR; acute myeloid cell lines: OCI-AML2, OCI-AML3, MolM13, and MolM14; myelodysplastic cell line: SM1; and chronic myeloid cell line: CML). All these cell lines share as common denominator the expression of CXCR1 and CXCR2. The EC50 values have been measured by a XTT colorimetric assay, and compared to those of SB-225002, used as a reference; the results are listed in Table 1.

RCC4 = test: XTT cell viability assay, RCC4; assay type: cell-based; settings: Homo sapiens, XTT assay (48 h), standard deviation of 10%, read-out: EC50 (μM) Kidney RCC4
Description: as §1, §2

CAL27 = test: XTT cell viability assay, CAL27; assay type: cell-based, human; settings: Homo sapiens, CAL-27, 48 h, XTT assay (48 h); standard deviation of 10%; read-out: EC50 (μM) Head and Neck CAL27
Description: (§3) A, B: Naive (Cal27, A), and cisplatine-resistant (Cal27R, B) Cal27 cells, were treated with compound #1 or cisplatine (1 to 10 μM) for 48 hr. Cell viability was measured by XTT assays;
(§4) C, D: Cal27 (C), cal27R (D), were treated with 2.5 μM compound #1, 2.5 μM cisplatin for 24 h to 96 h. The metabolism of cells was measured by XTT assay.
as §1, §2

786-O = test: XTT cell viability assay, 786-O; assay type: cell-based, human; settings: Homo sapiens, 786-0; XTT assay (48 h); standard deviation of 10%; read-out: EC50 (μM) Kidney 786-O
Description: (§5) A, B: Naive (786-O, A), and sunitinib-resistant (786-R, B) 786-O cells, were treated with compound #1 or sunitinib (1 to 10 μM) for 48 hr. Cell viability was measured by XTT assays;
(§6) D, E: 786-O (D), 786-R (E), were treated with 2.5 μM compound #1 or 2.5 μM sunitinib for 24 h to 96 h. The cells metabolism was measured by XTT assay;
as §1, §2

786R = test: XTT cell viability assay, 786R (sunitinib-resistant); assay type: cell-based, human; settings: Homo sapiens, 48 h, XTT assay (48 h); sunitinib-resistant; standard deviation of 10%; read-out: EC50 (μM) Kidney 786R
Description: as §5, §6, §1, §2

CAL33RR = test: XTT cell viability assay, CAL33RR; assay type: cell-based; settings: Homo sapiens, light or radiation study; XTT assay (48 h); resistant to irradiation and cisplatin; standard deviation of 10%; read-out: EC50 (μM) Head and Neck CAL33RR
Description: as §1, §2

A498 = test: XTT cell viability assay, A498; assay type: cell-based, human; settings: XTT assay (48 h), standard deviation of 10%, read-out: EC50 (μM) Kidney A498
Description: as §1, §2

OCI-AML2 = test: XTT cell viability assay, OCI-AML2; assay type: cell-based, human; settings: XTT assay (48 h), standard deviation of 10%, read-out: EC50 (μM) AML OCI-AML2
Description: as §1, §2

MDA-MB-231 = test: XTT cell viability assay, MDA-MB-231; assay type: cell-based; settings: Homo sapiens, XTT assay (48 h), standard deviation of 10%, read-out: EC50 (μM) Breast MDA-MB-231
Description: as §1, §2

MolM13 = test: XTT cell viability assay, MolM13; assay type: cell-based, human; settings: XTT assay (48 h), standard deviation of 10%, read-out: EC50 (μM) AML MolM13
Description: as §1, §2

K562 = test: XTT cell viability assay, K562; assay type: cell-based, human; settings: XTT assay (48 h), standard deviation of 10%, read-out: EC50 (μM) CML K562
Description: as §1, §2

OCI-AML3 = test: XTT cell viability assay, OCI-AML3; assay type: cell-based, human; settings: XTT assay (48 h), standard deviation of 10%
Description: as §1, §2

MolM14 = test: XTT cell viability assay, MolM14; assay type: cell-based, human; settings: XTT assay (48 h), standard deviation of 10%, read-out: EC50 (μM) AML MolM14
Description: as §1, §2

SKM1 = test: XTT cell viability assay, SKM1; assay type: cell-based, human; settings: XTT assay (48 h), standard deviation of 10%, read-out: EC50 (μM) MDS SKM1
Description: as §1, §2

CAL27RR = test: XTT cell viability assay, CAL27RR (cisplatin-resistant); assay type: cell-based, human; settings: Homo sapiens, light or radiation study; XTT assay (48 h); resistant to irradiation and cisplatin; standard deviation of 10%; read-out: EC50 (μM) Head and Neck CAL27RR
Description: as §3, §4, §1, §2

Row | SMILES | EC50 (RCC4) [µM] | EC50 (786-O) [µM] | EC50 (A498; Homo sapiens, A498) [µM] | EC50 (OCI-AML2; Homo sapiens, OCI-AML2) [µM] | EC50 (MDA-MB-231) [µM] | EC50 (MolM13; Homo sapiens, MOLM-13) [µM] | EC50 (K562; Homo sapiens, K562) [µM] | EC50 (OCI-AML3; Homo sapiens, OCI-AML-3) [µM] | EC50 (MolM14; Homo sapiens, MOLM-14) [µM] | EC50 (SKM1; Homo sapiens, SKM-1) [µM] | further results
1 | O=C(Nc1nc2ccc([N+](=O)[O-])cc2s1)Nc1ccccc1Br [Compound #13, 1-(2-bromophenyl)-3-(6-nitrobenzo[d]thiazol-2-yl)urea] | 25 | 15 | 20 |  |  |  |  |  |  |  | EC50 (CAL33): 8 µM; EC50 (CAL27): > 25 µM; EC50 (786R): 14 µM; EC50 (CAL33RR): > 25 µM
2 | Cc1ccc2nc(NC(=O)Nc3ccccc3Cl)sc2c1 [Compound #4, 1-(2-chlorophenyl)-3-(6-methylbenzo[d]thiazol-2-yl)urea] | > 25 | 15 | 15 | > 25 | > 25 | 15 | 25 | 10 | 10 | 25 | 
3 | O=C(Nc1ccccc1)Nc1nc2ccccc2[nH]1 [Compound #5, 1-(1H-benzo[d]imidazol-2-yl)-3-phenylurea] | 25 | 20 | 10 | 18 | 12 | 25 | 10 | 25 | 20 | 25 | 
4 | O=C(Nc1cccc(Cl)c1)Nc1nc2ccc([N+](=O)[O-])cc2[nH]1 [Compound #14, 1-(3-chlorophenyl)-3-(6-nitro-1H-benzo[d]imidazol-2-yl)urea] | 3 | 4 | 5 |  |  |  |  |  |  |  | EC50 (CAL33): 15 µM; EC50 (CAL27RR): 10 µM; EC50 (CAL27): 15 µM; EC50 (786R): 4 µM; EC50 (CAL33RR): 25 µM
5 | O=C(Nc1ccc(Cl)cc1)Nc1nc2ccccc2[nH]1 [Compound #6, 1-(1H-benzo[d]imidazol-2-yl)-3-(4-chlorophenyl)urea] | 20 | 20 | 9 | 20 | 20 | > 25 | 12 | 22 | 20 | > 25 | 
6 | O=C(Nc1nc2ccccc2s1)Nc1ccccc1Cl [Compound #7, 1-(benzo[d]thiazol-2-yl)-3-(2-chlorophenyl)urea] | 25 | > 25 | > 25 | 10 | > 25 | > 25 | > 25 | > 25 | > 25 | > 25 | 
7 | O=C(Nc1cccc(Cl)c1)Nc1nc2ccccc2s1 [Compound #8, 1-(benzo[d]thiazol-2-yl)-3-(3-chlorophenyl)urea] | 20 | > 25 | > 25 | > 25 | > 25 | > 25 | 25 | > 25 | > 25 | > 25 | 
8 | O=C(Nc1cc(Cl)cc(Cl)c1)Nc1nc2ccc([N+](=O)[O-])cc2s1 [Compound #11, 1-(3,5-dichlorophenyl)-3-(6-nitrobenzo[d]thiazol-2-yl)urea] | 2 | 5 | 2.5 |  |  |  |  |  |  |  | EC50 (CAL33): 4 µM; EC50 (CAL27RR): 2.5 µM; EC50 (CAL27): 2.5 µM; EC50 (786R): 5 µM; EC50 (CAL33RR): 4 µM
9 | O=C(Nc1ccc(Cl)cc1)Nc1nc2ccccc2s1 [Compound #9, 1-(benzo[d]thiazol-2-yl)-3-(4-chlorophenyl)urea] | 20 | > 25 | 25 | > 25 | > 25 | > 25 | 25 | > 25 | > 25 | > 25 | 
10 | COc1ccc(NC(=O)Nc2nc3ccccc3s2)cc1 [Compound #10, 1-(benzo[d]thiazol-2-yl)-3-(4-methoxyphenyl)urea] | 15 | > 25 | > 25 | > 25 | > 25 | > 25 | 25 | > 25 | > 25 | > 25 | 
11 | O=C(Nc1ccccc1)Nc1nc2ccccc2o1 [Compound #5-1, 1-(benzo[d]oxazol-2-yl)-3-phenylurea, reference compound] | > 25 | > 25 | > 25 | > 25 | > 25 | > 25 | > 25 | > 25 | > 25 | > 25 | 
12 | O=C(Nc1ccc([N+](=O)[O-])cc1O)Nc1ccccc1Br [SB-225002, reference compound] |  |  |  |  |  |  |  |  |  |  | EC50 (OCI-AML2): > 100 µM; EC50 (MolM13): > 100 µM; EC50 (K562): > 100 µM; EC50 (OCI-AML3; read-out: EC50 (μM) AML OCI-AML3): 90 µM; EC50 (MolM14): 90 µM; EC50 (SKM1): > 100 µM; EC50 (A498): 70 µM
